Results on 13 compounds are retold here after ChEMBL document CHEMBL5360651, “Progress on the Pharmacological Targeting of Janus Pseudokinases” (J Med Chem, 2023).

A short description of data set [1]: Half life in human liver microsomes. In kind it is ADME, Microsome.
Data set [2] has as its target Voltage-gated inwardly rectifying potassium channel KCNH2 (Homo sapiens, UniProt Q12809). Kind of data set: Inhibition of hERG by fluorescence polarization method. The class given is toxicity.
The target in data set [3] is T1, Non-receptor tyrosine-protein kinase TYK2 (Homo sapiens, UniProt P29597). Kind of data set: Inhibition of TYK2 signalling pathway in human PBMC cells assessed as IFN alpha induced p-STAT1 level. The class given is cell-based.
T1 sequence (P29597 whole entry): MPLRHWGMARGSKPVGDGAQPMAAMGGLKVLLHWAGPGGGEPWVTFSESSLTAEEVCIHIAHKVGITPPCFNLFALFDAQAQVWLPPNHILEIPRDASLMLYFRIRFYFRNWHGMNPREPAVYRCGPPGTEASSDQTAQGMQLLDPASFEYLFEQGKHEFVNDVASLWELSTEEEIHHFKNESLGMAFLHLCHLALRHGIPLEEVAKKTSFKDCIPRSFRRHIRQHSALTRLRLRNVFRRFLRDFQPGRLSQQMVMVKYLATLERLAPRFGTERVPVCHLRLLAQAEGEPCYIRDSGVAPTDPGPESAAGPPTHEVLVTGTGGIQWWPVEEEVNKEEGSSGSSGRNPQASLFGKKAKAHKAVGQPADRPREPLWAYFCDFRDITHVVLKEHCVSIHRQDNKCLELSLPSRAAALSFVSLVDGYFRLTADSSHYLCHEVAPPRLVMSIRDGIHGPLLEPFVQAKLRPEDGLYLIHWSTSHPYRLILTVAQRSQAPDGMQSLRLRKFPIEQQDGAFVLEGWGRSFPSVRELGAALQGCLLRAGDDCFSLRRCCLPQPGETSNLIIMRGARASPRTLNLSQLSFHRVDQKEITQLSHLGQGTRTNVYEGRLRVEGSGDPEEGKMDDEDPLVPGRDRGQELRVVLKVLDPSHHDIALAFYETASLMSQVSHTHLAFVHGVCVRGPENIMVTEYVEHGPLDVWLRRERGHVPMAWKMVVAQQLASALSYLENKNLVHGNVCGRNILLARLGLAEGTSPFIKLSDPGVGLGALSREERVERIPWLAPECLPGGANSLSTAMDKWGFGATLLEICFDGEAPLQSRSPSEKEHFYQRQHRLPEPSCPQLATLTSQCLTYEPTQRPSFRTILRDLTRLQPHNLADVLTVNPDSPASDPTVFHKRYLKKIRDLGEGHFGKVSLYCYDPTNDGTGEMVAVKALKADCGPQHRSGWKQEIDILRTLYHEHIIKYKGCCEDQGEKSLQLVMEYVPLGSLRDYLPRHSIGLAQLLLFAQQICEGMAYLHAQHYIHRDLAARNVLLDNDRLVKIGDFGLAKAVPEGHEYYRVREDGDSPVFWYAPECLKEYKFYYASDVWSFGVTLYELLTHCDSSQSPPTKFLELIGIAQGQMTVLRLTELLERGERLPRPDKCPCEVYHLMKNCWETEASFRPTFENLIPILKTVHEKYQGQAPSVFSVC
Data set [4] addresses T1, Non-receptor tyrosine-protein kinase TYK2. Kind of data set: Inhibition of TYK2 signalling pathway in human PBMC cells assessed as IFN alpha induced p-STAT3 level. In kind it is cell-based.
Data set [5] is described as follows: Inhibition of JAK1 JH2 (unknown origin). Details: species or system Homo sapiens.
For data set [6], the target named is T2, Tyrosine-protein kinase JAK1 (Homo sapiens, UniProt P23458).
T2 sequence (P23458 whole entry): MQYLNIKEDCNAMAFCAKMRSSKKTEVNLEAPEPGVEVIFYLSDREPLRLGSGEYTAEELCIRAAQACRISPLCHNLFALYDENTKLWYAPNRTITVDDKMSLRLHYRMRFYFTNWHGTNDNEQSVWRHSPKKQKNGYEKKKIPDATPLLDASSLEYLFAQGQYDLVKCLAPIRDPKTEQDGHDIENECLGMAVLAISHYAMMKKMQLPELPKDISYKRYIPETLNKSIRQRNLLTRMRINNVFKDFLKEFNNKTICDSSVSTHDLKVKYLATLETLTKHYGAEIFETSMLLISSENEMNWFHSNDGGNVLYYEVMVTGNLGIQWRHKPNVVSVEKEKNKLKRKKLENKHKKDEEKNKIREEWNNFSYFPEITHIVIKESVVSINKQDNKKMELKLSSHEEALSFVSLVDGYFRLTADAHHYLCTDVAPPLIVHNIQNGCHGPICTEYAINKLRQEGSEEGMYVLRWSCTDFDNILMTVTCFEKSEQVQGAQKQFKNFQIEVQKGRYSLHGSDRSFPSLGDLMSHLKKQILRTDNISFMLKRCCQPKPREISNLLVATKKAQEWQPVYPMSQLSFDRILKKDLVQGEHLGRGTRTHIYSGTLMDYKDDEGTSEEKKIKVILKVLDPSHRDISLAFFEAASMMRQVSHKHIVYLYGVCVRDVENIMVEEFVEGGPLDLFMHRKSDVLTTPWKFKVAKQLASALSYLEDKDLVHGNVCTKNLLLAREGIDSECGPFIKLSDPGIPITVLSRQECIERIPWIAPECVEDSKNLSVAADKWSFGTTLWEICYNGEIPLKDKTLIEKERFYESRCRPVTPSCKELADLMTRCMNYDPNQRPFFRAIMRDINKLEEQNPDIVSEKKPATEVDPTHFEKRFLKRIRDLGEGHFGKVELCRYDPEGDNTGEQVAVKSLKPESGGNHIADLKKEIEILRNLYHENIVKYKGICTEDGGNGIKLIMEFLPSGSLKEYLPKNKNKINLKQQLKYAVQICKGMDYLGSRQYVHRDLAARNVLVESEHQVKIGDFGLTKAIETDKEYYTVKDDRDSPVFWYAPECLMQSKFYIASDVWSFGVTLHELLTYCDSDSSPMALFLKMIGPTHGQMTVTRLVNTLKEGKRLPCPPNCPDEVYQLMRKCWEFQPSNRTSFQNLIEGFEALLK
Data set [7] deals with T1, Non-receptor tyrosine-protein kinase TYK2. Kind of data set: Inhibition of TYK2 JH2 in human KIT225 cells assessed as reduction of IFNalpha induced STAT1 phosphorylation by AlphaLISA assay. The class given is cell-based.
Data set [8] deals with T3, Inhibitor of nuclear factor kappa-B kinase subunit beta (Homo sapiens) (UniProt O14920).
T3 sequence (whole entry): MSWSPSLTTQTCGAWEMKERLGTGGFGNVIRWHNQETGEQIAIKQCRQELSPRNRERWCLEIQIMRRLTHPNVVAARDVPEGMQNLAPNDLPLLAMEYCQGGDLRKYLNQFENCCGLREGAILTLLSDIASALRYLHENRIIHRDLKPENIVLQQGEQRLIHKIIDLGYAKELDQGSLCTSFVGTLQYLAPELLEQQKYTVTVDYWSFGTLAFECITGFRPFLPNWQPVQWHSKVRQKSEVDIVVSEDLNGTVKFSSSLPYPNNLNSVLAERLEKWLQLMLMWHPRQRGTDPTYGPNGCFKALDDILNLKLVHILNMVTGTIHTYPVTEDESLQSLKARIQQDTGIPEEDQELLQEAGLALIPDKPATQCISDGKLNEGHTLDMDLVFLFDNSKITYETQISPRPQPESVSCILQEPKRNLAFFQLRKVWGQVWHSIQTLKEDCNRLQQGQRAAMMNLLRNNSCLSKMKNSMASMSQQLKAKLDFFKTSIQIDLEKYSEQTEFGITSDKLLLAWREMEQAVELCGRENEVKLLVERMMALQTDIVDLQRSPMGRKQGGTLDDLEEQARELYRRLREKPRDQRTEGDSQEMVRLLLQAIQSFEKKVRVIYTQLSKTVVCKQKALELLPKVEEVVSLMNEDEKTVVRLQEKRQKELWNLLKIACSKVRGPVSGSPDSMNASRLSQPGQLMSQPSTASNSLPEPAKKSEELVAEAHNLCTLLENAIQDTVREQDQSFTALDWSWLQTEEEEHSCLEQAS
Kind of data set: Inhibition of IKKbeta (unknown origin) at 1 uM relative to control.

Data set [9] concerns the target T1, Non-receptor tyrosine-protein kinase TYK2. Kind of data set: Inhibition of human recombinant N-terminal His-tagged TYK2 (575 to 869 residues) expressed in baculovirus infected Sf9 cells at 1 uM incubated for 30 mins by scintillation method.
Data set [10] is described as follows: Solubility of compound at pH 6.5. The class given is physicochemical. The following applies: buffer.
Data set [11] addresses T4, Tyrosine-protein kinase JAK3 (Homo sapiens, UniProt P52333).
T4 sequence (P52333 whole entry): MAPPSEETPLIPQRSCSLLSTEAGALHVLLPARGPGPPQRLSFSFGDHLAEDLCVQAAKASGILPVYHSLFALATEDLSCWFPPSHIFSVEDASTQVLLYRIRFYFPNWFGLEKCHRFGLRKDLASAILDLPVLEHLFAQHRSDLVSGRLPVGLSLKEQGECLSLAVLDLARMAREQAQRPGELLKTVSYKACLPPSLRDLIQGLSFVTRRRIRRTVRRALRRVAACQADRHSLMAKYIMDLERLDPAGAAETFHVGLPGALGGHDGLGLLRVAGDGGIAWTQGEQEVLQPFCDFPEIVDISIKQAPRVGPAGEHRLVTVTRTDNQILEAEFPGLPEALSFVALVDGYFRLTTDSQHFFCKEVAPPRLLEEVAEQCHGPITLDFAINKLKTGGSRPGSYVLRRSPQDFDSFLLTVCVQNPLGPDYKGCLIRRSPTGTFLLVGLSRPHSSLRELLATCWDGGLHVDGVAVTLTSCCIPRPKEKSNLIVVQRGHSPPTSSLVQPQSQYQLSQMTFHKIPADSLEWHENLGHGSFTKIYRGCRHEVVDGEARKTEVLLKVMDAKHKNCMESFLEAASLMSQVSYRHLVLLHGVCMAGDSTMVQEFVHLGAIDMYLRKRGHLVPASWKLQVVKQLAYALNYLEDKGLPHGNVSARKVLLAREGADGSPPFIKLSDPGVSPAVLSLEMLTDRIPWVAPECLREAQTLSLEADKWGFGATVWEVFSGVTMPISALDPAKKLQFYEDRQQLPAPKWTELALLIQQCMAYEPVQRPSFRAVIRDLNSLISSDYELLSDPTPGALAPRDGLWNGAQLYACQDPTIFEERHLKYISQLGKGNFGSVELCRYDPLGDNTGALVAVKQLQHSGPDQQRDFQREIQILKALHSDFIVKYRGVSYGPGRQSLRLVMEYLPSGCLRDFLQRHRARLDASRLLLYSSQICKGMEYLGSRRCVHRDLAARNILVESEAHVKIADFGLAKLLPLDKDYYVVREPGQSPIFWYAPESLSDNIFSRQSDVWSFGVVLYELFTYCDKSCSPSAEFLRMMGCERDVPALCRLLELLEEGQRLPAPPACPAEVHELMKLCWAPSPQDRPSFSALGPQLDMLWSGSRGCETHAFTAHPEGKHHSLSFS
Kind of data set: Inhibition of JAK3 signaling pathway in human PBMC cells assessed as reduction of IL-2 induced STAT5 phosphorylation. In kind it is cell-based.

Data set [12] can be described thus: Inhibition of PDE4 (unknown origin) by HTRF assay. Also noted: species or system Homo sapiens.
In data set [13] the target is T1, Non-receptor tyrosine-protein kinase TYK2. In kind it is cell-based, Sf9.
Data set [14] concerns the target T2, Tyrosine-protein kinase JAK1. This is another data set of the same source.
Data set [15] deals with T1, Non-receptor tyrosine-protein kinase TYK2. The class given is cell-based, Sf9. The source holds these as a separate data set.
Data set [16] concerns the target T5, Tyrosine-protein kinase JAK2 (Homo sapiens, UniProt O60674).
The target in data set [17] is T5, Tyrosine-protein kinase JAK2. Kind of data set: Binding affinity to wild type JAK2 JH2 (unknown origin).
For data set [18], the target named is Tyrosine-protein kinase JAK2 (Homo sapiens, UniProt O60674, V617F). Kind of data set: Binding affinity to JAK2 V617F mutant (unknown origin) assessed as dissociation constant.
Chain of Tyrosine-protein kinase JAK2 (Homo sapiens, UniProt O60674, V617F) (O60674 whole entry V617F): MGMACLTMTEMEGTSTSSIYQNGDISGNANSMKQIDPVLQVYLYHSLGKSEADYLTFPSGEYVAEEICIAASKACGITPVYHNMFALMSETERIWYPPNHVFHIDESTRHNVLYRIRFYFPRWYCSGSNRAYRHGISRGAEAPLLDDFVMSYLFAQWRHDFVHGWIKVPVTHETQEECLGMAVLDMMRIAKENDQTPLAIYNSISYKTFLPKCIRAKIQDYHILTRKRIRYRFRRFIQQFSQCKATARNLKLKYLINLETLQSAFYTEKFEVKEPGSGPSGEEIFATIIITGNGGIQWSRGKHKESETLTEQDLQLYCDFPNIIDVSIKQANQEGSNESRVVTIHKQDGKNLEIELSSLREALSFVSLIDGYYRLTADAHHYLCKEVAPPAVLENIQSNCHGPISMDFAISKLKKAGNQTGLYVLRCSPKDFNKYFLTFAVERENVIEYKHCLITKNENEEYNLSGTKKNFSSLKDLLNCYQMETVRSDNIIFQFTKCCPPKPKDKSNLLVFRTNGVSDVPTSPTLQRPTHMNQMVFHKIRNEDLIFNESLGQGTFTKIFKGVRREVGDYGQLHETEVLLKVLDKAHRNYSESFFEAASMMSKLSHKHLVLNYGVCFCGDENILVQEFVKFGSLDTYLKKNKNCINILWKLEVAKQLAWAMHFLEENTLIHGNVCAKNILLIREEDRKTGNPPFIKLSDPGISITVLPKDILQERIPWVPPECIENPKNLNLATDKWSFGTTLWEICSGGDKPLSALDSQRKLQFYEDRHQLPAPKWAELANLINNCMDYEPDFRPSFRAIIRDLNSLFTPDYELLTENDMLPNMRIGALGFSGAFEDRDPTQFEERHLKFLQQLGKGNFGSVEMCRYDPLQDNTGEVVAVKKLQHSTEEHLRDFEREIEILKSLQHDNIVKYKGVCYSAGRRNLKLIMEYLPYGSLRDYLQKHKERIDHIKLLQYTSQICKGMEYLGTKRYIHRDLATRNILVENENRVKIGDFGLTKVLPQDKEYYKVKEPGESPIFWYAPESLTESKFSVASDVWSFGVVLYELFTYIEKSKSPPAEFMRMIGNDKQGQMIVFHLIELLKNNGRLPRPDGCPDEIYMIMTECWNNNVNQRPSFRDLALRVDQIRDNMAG

A value given as a limit tells only on which side of the number the result lay.

T5 sequence (O60674 whole entry): as the sequence (O60674 whole entry V617F) above, with F617V counted along it
Chain of Voltage-gated inwardly rectifying potassium channel KCNH2 (Q12809 whole entry): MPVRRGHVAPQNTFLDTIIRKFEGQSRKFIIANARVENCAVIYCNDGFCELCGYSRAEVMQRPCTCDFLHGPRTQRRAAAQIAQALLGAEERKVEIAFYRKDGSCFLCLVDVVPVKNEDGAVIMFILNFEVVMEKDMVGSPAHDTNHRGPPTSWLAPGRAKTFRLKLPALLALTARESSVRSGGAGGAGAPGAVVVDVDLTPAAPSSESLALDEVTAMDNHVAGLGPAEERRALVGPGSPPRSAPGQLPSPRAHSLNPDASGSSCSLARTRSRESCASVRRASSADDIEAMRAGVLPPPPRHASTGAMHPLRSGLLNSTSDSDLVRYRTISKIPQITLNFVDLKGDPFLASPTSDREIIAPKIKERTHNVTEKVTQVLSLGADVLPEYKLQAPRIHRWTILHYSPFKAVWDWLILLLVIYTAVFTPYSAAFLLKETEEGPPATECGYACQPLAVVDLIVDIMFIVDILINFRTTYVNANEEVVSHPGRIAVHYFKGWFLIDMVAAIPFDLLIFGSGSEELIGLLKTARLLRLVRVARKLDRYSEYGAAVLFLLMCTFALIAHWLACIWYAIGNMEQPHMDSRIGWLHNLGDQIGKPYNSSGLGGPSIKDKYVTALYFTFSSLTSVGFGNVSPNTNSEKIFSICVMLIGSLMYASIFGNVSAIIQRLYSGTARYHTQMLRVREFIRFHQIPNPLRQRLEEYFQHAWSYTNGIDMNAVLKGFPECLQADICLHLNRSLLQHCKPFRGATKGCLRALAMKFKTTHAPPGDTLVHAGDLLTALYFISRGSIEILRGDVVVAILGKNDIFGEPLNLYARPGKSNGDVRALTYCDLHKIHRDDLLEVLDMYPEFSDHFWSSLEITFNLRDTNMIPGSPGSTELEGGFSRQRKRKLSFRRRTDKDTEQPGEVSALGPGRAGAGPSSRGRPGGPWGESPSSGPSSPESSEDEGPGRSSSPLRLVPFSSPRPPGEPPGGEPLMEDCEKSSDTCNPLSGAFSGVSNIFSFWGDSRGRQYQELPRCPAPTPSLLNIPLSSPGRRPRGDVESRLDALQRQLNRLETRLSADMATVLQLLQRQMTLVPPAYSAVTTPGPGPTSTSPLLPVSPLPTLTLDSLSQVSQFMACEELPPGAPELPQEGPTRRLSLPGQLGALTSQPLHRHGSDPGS

In the case of `CNC(=O)c1nnc(NC(=O)C2CC2)c2[nH]c(-c3ccc(N)cc3OC)cc12`, the half-life in data set [1] is > 2.32 h. Besides, in [2], the IC50 was > 30000 nM. Regarding `CS(=O)(=O)N1CC[C@H](C#CC(=O)N2CCC[C@@H](c3ccc(Cl)c(Cl)c3)C2)C1`, the IC50 in [3] was determined as 32 nM; in data set [4] it was 46 nM. The compound `CC(C)CCN1c2nc(Nc3cc(F)c(O)c(F)c3)ncc2N(C)C(=O)C1C` (stereo not drawn) yielded an IC50 in data set [5] of 658 nM. For the compound `O=C(Nc1c[nH]nc1-c1nc2cc(CN3CCOCC3)ccc2[nH]1)NC1CC1` [AT-9283], the IC50 in data set [6] is 60 nM. Turning to `CC(C)CCN1c2nc(Nc3cc(F)c(O)c(F)c3)ncc2N(C)C(=O)C1(C)C`, the IC50 in data set [5] is 123 nM.

`CNC(=O)c1cnc(Nc2ccc(F)cn2)cc1Nc1ccccc1S(C)(=O)=O`: in [7], the IC50 was 63 nM. For `CNc1nc2sc(-c3cccc([C@@H](C)NC(=O)c4ccccc4S(C)(=O)=O)c3)nc2c2c1ncn2C`, the values for the inhibition in data set [8] and in data set [9] were > 96% and 99%, respectively.

Turning to `[2H]C([2H])([2H])NC(=O)c1nnc(NC(=O)C2CC2)cc1Nc1cccc(-c2ncn(C)n2)c1OC` [DEUCRAVACITINIB], in data set [10], the solubility is < 1 µg/mL. Moreover, in [1], the half-life was > 2 h. Moreover, the 50% inhibitory concentration (IC50) in [11] worked out at 3 nM. As for `NC(=O)c1ccccc1Nc1cc(Nc2ccc(F)cn2)ncc1C(N)=O`, the IC50 in [12] is > 2000 nM; in data set [7], 37 nM. `CNC(=O)c1cnc(Nc2ccc(C#N)cn2)cc1Nc1cccc(-c2ncn(C)n2)c1OC` displayed an IC50 in data set [13] of 0.3 nM.

Take `c1nc2nc(Nc3ccc(N4CCOCC4)cc3)nc(NC3CCCCC3)c2[nH]1` [REVERSINE]: the 50% inhibitory concentration (IC50) in data set [6] and in data set [14] was 350 nM in each case.

`O=c1cc(-c2ccccc2)nc2c(-c3cccc([N+](=O)[O-])c3)c(C(F)(F)F)[nH]n12`: the 50% inhibitory concentration (IC50) was found to be 50000 nM in [15], 14000 nM in data set [16] and 9700 nM in [13]. For the compound `Nc1nc(CSc2nnc(NCC3CCCC3)s2)nc(Nc2ccc(F)cc2)n1`, the Kd is 149000 nM in data set [17] and 65000 nM in [18].
